Eleven compounds from ChEMBL document CHEMBL1201862, “PubChem BioAssay data set” (2004) can be followed below.

What all share (assay): inhibition of tumour cell growth, NCI panel, 48 h
The subject of experiment [1] is SN12C.
The subject of experiment [2] is ACHN.
The test system of experiment [3] is DU-145.
The test system of experiment [4] is A498.
Experiment [5] has as its system HL-60.
Experiment [6] has as its system SF-539.
For experiment [7], the system named is RPMI-8226.
The subject of experiment [8] is SF-295.
Experiment [9] deals with CAKI-1.
Experiment [10] concerns U-251.
In experiment [11] the test system is IGROV-1.
Experiment [12] relates to Malme-3M.
In experiment [13] the test system is OVCAR-3.
Experiment [14] deals with 786-0.
Experiment [15] concerns MDA-MB-231.
Experiment [16] deals with UACC-62.
The test system of experiment [17] is UO-31.
Experiment [18] relates to SK-OV-3.
The subject of experiment [19] is RXF 393.
Experiment [20] deals with HCC 2998.

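The compound was tested at five concentrations on cells cultured in 96-well plates, with a 48-hour exposure period. GI50 is the concentration that inhibits growth by half.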 The source made the active and inactive calls. Rule as the data show it: active = GI50 up to about 1.1 µM and inactive = higher.

As to `CC(=O)Oc1cc(S(=O)(=O)Nc2n[nH]c(Nc3ccc(C)cc3)n2)c(S)cc1Cl`, the GI50 in experiment [1] is > 100 µM (inactive); in [2], 54.8 µM (inactive); in experiment [3], > 100 µM (inactive); in experiment [4], > 100 µM (inactive); in experiment [5] it was 45.7 µM (inactive); in [6] it was > 100 µM (inactive). Also, the GI50 in experiment [7], in experiment [8], in experiment [9], in [10], in [11] and in experiment [12] was > 100 µM (inactive) throughout. Moreover, the GI50 was > 100 µM (inactive) in [13]; > 100 µM (inactive) in [14]; 51.1 µM (inactive) in experiment [15]; > 100 µM (inactive) in [16]; > 100 µM (inactive) in experiment [17].
Turning to `N=C1c2ccccc2C(=O)c2c(NCCNCCO)ccc(O)c21`, the GI50 was 4.83 µM (inactive) in experiment [1]; 3.23 µM (inactive) in [2]; 13.7 µM (inactive) in experiment [4]; 6.85 µM (inactive) in [5]; 4.73 µM (inactive) in experiment [6]; 6.55 µM (inactive) in experiment [18]. Besides, the GI50 in [7] was 7.19 µM (inactive); in experiment [8], 12.5 µM (inactive); in [19], 4.66 µM (inactive); in experiment [9] it was 10.3 µM (inactive); in [10], 4.46 µM (inactive); in experiment [11], 5.38 µM (inactive). The GI50 was 9.42 µM (inactive) in experiment [20]; 13.7 µM (inactive) in [12]; 12.9 µM (inactive) in [13]; 4.73 µM (inactive) in experiment [14]; 6.4 µM (inactive) in [16]; 7.83 µM (inactive) in experiment [17].
`C=CC[C@@H]1C=C[C@@H](C(=O)OC)n2c(=O)n(-c3ccccc3)c(=O)n21`: the GI50 in experiment [1], in [2], in experiment [3], in experiment [4], in experiment [6] and in [18] was > 100 µM (inactive) in each case. Besides, the GI50 in [7], in experiment [8], in [9], in [10], in [11] and in experiment [20] was > 100 µM (inactive) throughout. Also, the GI50 in [13], in experiment [14], in experiment [15], in experiment [16] and in experiment [17] was > 100 µM (inactive) each time.
`O=P1(Oc2ccccc2)N=P(c2ccccc2)(c2ccccc2)C=C(c2ccc(Cl)cc2)N1` (centres undefined): the GI50 was 16.6 µM (inactive) in [1]; 13 µM (inactive) in [2]; 13.9 µM (inactive) in experiment [3]; 4.86 µM (inactive) in experiment [5]; 15.3 µM (inactive) in experiment [6]; 13.2 µM (inactive) in experiment [18]. In addition, the GI50 in [7] is 3.03 µM (inactive); in experiment [8] it was 6.92 µM (inactive); in experiment [9], 9.66 µM (inactive); in [10], 5.51 µM (inactive); in experiment [11], 12.2 µM (inactive); in experiment [12], 15.5 µM (inactive). Besides, the GI50 is 4.51 µM (inactive) in experiment [13]; 13.4 µM (inactive) in experiment [14]; 16.5 µM (inactive) in experiment [15]; 13.9 µM (inactive) in experiment [16]; 12 µM (inactive) in experiment [17].
Regarding `COC(=O)CN1SC2(SC13C(C)(C)C(=O)C3(C)C)C(C)(C)C(=O)C2(C)C`, the GI50 in experiment [1] was 48.3 µM (inactive); in experiment [2], > 100 µM (inactive); in experiment [3], 31.5 µM (inactive); in experiment [4] it was 30 µM (inactive); in [6], > 100 µM (inactive); in experiment [18] it was 41 µM (inactive). Besides, the GI50 is 49.8 µM (inactive) in experiment [7]; 48.3 µM (inactive) in experiment [8]; 54.2 µM (inactive) in experiment [9]; 94.4 µM (inactive) in experiment [10]; 89.5 µM (inactive) in [11]; 80.2 µM (inactive) in experiment [20]. Further, the GI50 in experiment [12] was 50.6 µM (inactive); in experiment [13], 41.6 µM (inactive); in [14], > 100 µM (inactive); in experiment [15], 77.3 µM (inactive); in [16] it was > 100 µM (inactive); in [17] it was 86.3 µM (inactive).
In the case of `COc1cccc(/C(Cl)=C(\C=O)c2cccc(OC)c2)c1`, the GI50 in [1] is 14 µM (inactive); in experiment [2], 6.9 µM (inactive); in experiment [4], 19.3 µM (inactive); in experiment [5], 2.69 µM (inactive); in experiment [6] it was 17.4 µM (inactive); in experiment [18] it was 20 µM (inactive). Also, the GI50 in experiment [7] was 4.62 µM (inactive); in experiment [8], 12.2 µM (inactive); in experiment [19], 5.12 µM (inactive); in experiment [9], 39 µM (inactive); in experiment [10] it was 10.1 µM (inactive); in experiment [11], 21 µM (inactive). In addition, the GI50 in [20] is 13.2 µM (inactive); in experiment [12] it was 0.946 µM (active); in [13], 15.4 µM (inactive); in experiment [14], 14.8 µM (inactive); in experiment [16], 4.43 µM (inactive); in experiment [17], 13 µM (inactive).
In the case of `COc1cc2c(c(OC)c1OC)C(=O)c1c(O)cc(C)c(OC)c1C2=O`, the GI50 in [1] was > 100 µM (inactive); in [2] it was 46 µM (inactive); in experiment [3], > 100 µM (inactive); in [4] it was > 100 µM (inactive); in experiment [5], > 100 µM (inactive); in experiment [6] it was 75.5 µM (inactive). Further, the GI50 in experiment [7] is > 100 µM (inactive); in experiment [8] it was 82.6 µM (inactive); in experiment [9] it was 44.6 µM (inactive); in experiment [10], 94 µM (inactive); in experiment [11] it was > 100 µM (inactive); in experiment [20], > 100 µM (inactive). The GI50 was > 100 µM (inactive) in [12]; > 100 µM (inactive) in experiment [13]; 78.3 µM (inactive) in experiment [14]; 55 µM (inactive) in experiment [15]; 85.3 µM (inactive) in experiment [17].
Turning to `FC(F)(F)c1nc(-c2ccccc2)oc1Sc1nnc(Sc2oc(-c3ccccc3)nc2C(F)(F)F)s1`, the GI50 in experiment [1] is 39.4 µM (inactive); in experiment [2], > 82.2 µM (inactive); in experiment [4], 98.6 µM (inactive); in experiment [5], 14.2 µM (inactive); in [6], > 69.8 µM (inactive); in experiment [18], > 100 µM (inactive). The GI50 in experiment [7] was 30.5 µM (inactive); in [8], > 67.1 µM (inactive); in experiment [19], 21.1 µM (inactive); in experiment [9] it was 30.1 µM (inactive); in experiment [10] it was > 42.5 µM (inactive); in experiment [11], 24.2 µM (inactive). Further, the GI50 in experiment [20] was > 78.2 µM (inactive); in experiment [12], 18.1 µM (inactive); in [13], > 43.4 µM (inactive); in experiment [14], 28.4 µM (inactive); in experiment [16], 35.2 µM (inactive); in experiment [17], > 100 µM (inactive).
Consider `CN1N=CSC12C(=O)N(c1ccccc1)C(=O)N2c1ccccc1` (centres undefined), for which the GI50 in [1], in experiment [2], in [4], in [5], in experiment [6] and in [18] was > 100 µM (inactive) in each case. Moreover, the GI50 in [7], in experiment [8], in experiment [19], in experiment [9], in experiment [10] and in experiment [11] was > 100 µM (inactive) throughout. Besides, the GI50 in [20], in [12], in [13], in [14], in experiment [16] and in experiment [17] was > 100 µM (inactive) in each case.
As for `COc1ccc(/C=C/C(=O)c2sc(NC(=S)NC(=O)c3ccccc3F)nc2C)cc1OC`, the GI50 is > 100 µM (inactive) in experiment [1]; > 100 µM (inactive) in [2]; > 100 µM (inactive) in [4]; 46.2 µM (inactive) in [5]; > 100 µM (inactive) in [6]; > 100 µM (inactive) in [18]. Also, the GI50 in experiment [7] was 36.2 µM (inactive); in [8], > 100 µM (inactive); in [19], 36.5 µM (inactive); in experiment [9] it was > 100 µM (inactive); in experiment [10] it was > 100 µM (inactive); in [11], > 100 µM (inactive). Also, the GI50 in experiment [20] is > 100 µM (inactive); in experiment [12], > 100 µM (inactive); in [13], > 100 µM (inactive); in experiment [14], > 100 µM (inactive); in [16], 85.9 µM (inactive); in experiment [17], 37.3 µM (inactive).
`COc1cc(/C=C/c2ccc(Br)cc2)cc(OC)c1OC`: the GI50 in [1] was 18.7 µM (inactive); in experiment [2], 18.9 µM (inactive); in [4], 6.71 µM (inactive); in experiment [5], 3.74 µM (inactive); in experiment [6], 11.4 µM (inactive); in experiment [18], 20.7 µM (inactive). The GI50 in experiment [7] was 3.99 µM (inactive); in [8] it was 6.73 µM (inactive); in experiment [19], 15.7 µM (inactive); in experiment [9], 6.24 µM (inactive); in [10] it was 10.1 µM (inactive); in experiment [11], 23.6 µM (inactive). Moreover, the GI50 in experiment [20] is 7.6 µM (inactive); in experiment [12], 6.08 µM (inactive); in experiment [13], 7.8 µM (inactive); in experiment [14] it was 19.9 µM (inactive); in experiment [16] it was 8.02 µM (inactive); in [17], 9.77 µM (inactive).
